In US7618816B2, “Metal-binding therapeutic peptides” (Ontherix, Inc., priority 2005, dated 2009):
Where no end group is shown, it is not given here.

How the values were obtained:
54 tumor cell lines = assay: Uptake of SA-HRP::MBD peptide complexes, median of the survey; assay type: cell-based; conditions: median over tumor cell lines
Description: (§1) HEK293 kidney cell line and 54 tumor cell lines obtained from the National Cancer Institute and passaged in RPMI1640 cell culture medium supplemented with 10% fetal bovine serum and 10 uM FeCl2. Uptake of streptavidin-horseradish peroxidase (SA-HRP) conjugate and of various SA-HRP::MBD peptide complexes was determined as described (Singh et al. J Biol Chem. 279 (1):477-87 [2004]) using biotinylated MBD9 ([…]) (SEQ ID NO: 10) and MBD21 ([…]) (SEQ ID NO: 4) peptides and SA-HRP. Nuclear and cytoplasmic localization of these proteins was also determined in each case. […] In order to establish the underlying molecular mechanism for this variability, we cross-linked MBD21 peptide to the following cell surface markers at 4 degrees Celsius as previously described (Singh et al. J Biol Chem. 279 (1):477-87 [2004]): transferrin receptor 1, caveolin 1, PCNA, integrins alpha v, 2, 5 and 6, integrins beta 1, 3 and 5. […] Based on the strength of these correlations, it was possible to derive crude predictive formulae for MBD-mediated uptake based on the rate of cross-linking to surface markers. Such predictive formulas could form the basis for a diagnostic procedure to select appropriate targets for MBD-based therapies.

HOP 92 = assay: Uptake of SA-HRP::MBD peptide complexes; assay type: cell-based, human
Description: as §1

CAKI-1 = assay: Uptake of SA-HRP::MBD peptide complexes; assay type: cell-based, human
Description: as §1

HOP 18 = assay: Uptake of SA-HRP::MBD peptide complexes; assay type: cell-based, human
Description: as §1

NHI-H322M = assay: Uptake of SA-HRP::MBD peptide complexes; assay type: cell-based, human
Description: as §1

786-O = assay: Uptake of SA-HRP::MBD peptide complexes; assay type: cell-based, human
Description: as §1

SK-0V-3 = assay: Uptake of SA-HRP::MBD peptide complexes; assay type: cell-based, human
Description: as §1

LOVO = assay: Uptake of SA-HRP::MBD peptide complexes; assay type: cell-based, human
Description: as §1

UO-31 = assay: Uptake of SA-HRP::MBD peptide complexes; assay type: cell-based, human
Description: as §1

A549 = assay: Uptake of SA-HRP::MBD peptide complexes; assay type: cell-based, human
Description: as §1

PC-3 = assay: Uptake of SA-HRP::MBD peptide complexes; assay type: cell-based, human
Description: as §1

TK-10 = assay: Uptake of SA-HRP::MBD peptide complexes; assay type: cell-based, human
Description: as §1

OVCAR-3 = assay: Uptake of SA-HRP::MBD peptide complexes; assay type: cell-based, human
Description: as §1

SW-620 = assay: Uptake of SA-HRP::MBD peptide complexes; assay type: cell-based, human
Description: as §1

MCF 7 = assay: Uptake of SA-HRP::MBD peptide complexes; assay type: cell-based, human
Description: as §1

A704 = assay: Uptake of SA-HRP::MBD peptide complexes; assay type: cell-based, human
Description: as §1

A2780 = assay: Uptake of SA-HRP::MBD peptide complexes; assay type: cell-based, human
Description: as §1

OVCAR-4 = assay: Uptake of SA-HRP::MBD peptide complexes; assay type: cell-based, human
Description: as §1

EKVX = assay: Uptake of SA-HRP::MBD peptide complexes; assay type: cell-based, human
Description: as §1

IGR-OV1 = assay: Uptake of SA-HRP::MBD peptide complexes; assay type: cell-based, human
Description: as §1

NCI-H23 = assay: Uptake of SA-HRP::MBD peptide complexes; assay type: cell-based, human
Description: as §1

SN12C = assay: Uptake of SA-HRP::MBD peptide complexes; assay type: cell-based, human
Description: as §1

RPMI 8226 = assay: Uptake of SA-HRP::MBD peptide complexes; assay type: cell-based, human
Description: as §1

SHP-77 = assay: Uptake of SA-HRP::MBD peptide complexes; assay type: cell-based, human
Description: as §1

MX-1 = assay: Uptake of SA-HRP::MBD peptide complexes; assay type: cell-based, human
Description: as §1

HS-578T = assay: Uptake of SA-HRP::MBD peptide complexes; assay type: cell-based, human
Description: as §1

DU-145 = assay: Uptake of SA-HRP::MBD peptide complexes; assay type: cell-based, human
Description: as §1

NCI-H226 = assay: Uptake of SA-HRP::MBD peptide complexes; assay type: cell-based, human
Description: as §1

Lewis Lung = assay: Uptake of SA-HRP::MBD peptide complexes; assay type: cell-based, human
Description: as §1

COLO 205 = assay: Uptake of SA-HRP::MBD peptide complexes; assay type: cell-based, human
Description: as §1

HCT-116 = assay: Uptake of SA-HRP::MBD peptide complexes; assay type: cell-based, human
Description: as §1

HT-29 = assay: Uptake of SA-HRP::MBD peptide complexes; assay type: cell-based, human
Description: as §1

## KKGFYKKKQCRPSKGRKRGFCWAVDKYG (cysteine pairing not given here; also: biotinylated (position not given here), complexed with SA-HRP) [MBD21]
54 tumor cell lines; cytoplasmic
  SA-HRP uptake, Cyt. (ng), Median: 2.8 ng
54 tumor cell lines; nuclear
  SA-HRP uptake, Nuc. (ng), Median: 1.0 ng
HOP 92; HOP 92, cytoplasmic
  SA-HRP uptake, Cyt.: 1.5 ng
HOP 92; HOP 92, nuclear
  SA-HRP uptake, Nuc.: 1.6 ng
CAKI-1; CAKI-1, cytoplasmic
  SA-HRP uptake, Cyt.: 2.8 ng
CAKI-1; CAKI-1, nuclear
  SA-HRP uptake, Nuc.: 1.0 ng
HOP 18; HOP 18, cytoplasmic
  SA-HRP uptake, Cyt.: 10.3 ng
HOP 18; HOP 18, nuclear
  SA-HRP uptake, Nuc.: 3.1 ng
NHI-H322M; cytoplasmic
  SA-HRP uptake, Cyt.: 6.0 ng
NHI-H322M; nuclear
  SA-HRP uptake, Nuc.: 8.3 ng
786-O; cytoplasmic
  SA-HRP uptake, Cyt.: 1.8 ng
786-O; nuclear
  SA-HRP uptake, Nuc.: 4.8 ng
SK-0V-3; SK-0V-3, cytoplasmic
  SA-HRP uptake, Cyt.: <0.04 ng
SK-0V-3; SK-0V-3, nuclear
  SA-HRP uptake, Nuc.: <0.04 ng
LOVO; cytoplasmic
  SA-HRP uptake, Cyt.: 8.7 ng
LOVO; nuclear
  SA-HRP uptake, Nuc.: 3.8 ng
UO-31; UO-31, cytoplasmic
  SA-HRP uptake, Cyt.: 1.3 ng
UO-31; UO-31, nuclear
  SA-HRP uptake, Nuc.: 3.3 ng
A549; A549, cytoplasmic
  SA-HRP uptake, Cyt.: 4.4 ng
A549; A549, nuclear
  SA-HRP uptake, Nuc.: 1.3 ng
PC-3; PC-3, cytoplasmic
  SA-HRP uptake, Cyt.: 44.2 ng
PC-3; PC-3, nuclear
  SA-HRP uptake, Nuc.: 13.2 ng
TK-10; TK-10, cytoplasmic
  SA-HRP uptake, Cyt.: 5.0 ng
TK-10; TK-10, nuclear
  SA-HRP uptake, Nuc.: 2.2 ng
OVCAR-3; OVCAR-3, cytoplasmic
  SA-HRP uptake, Cyt.: <0.04 ng
OVCAR-3; OVCAR-3, nuclear
  SA-HRP uptake, Nuc.: 3.2 ng
SW-620; SW-620, cytoplasmic
  SA-HRP uptake, Cyt.: 6.3 ng
SW-620; SW-620, nuclear
  SA-HRP uptake, Nuc.: 2.3 ng
MCF 7; MCF 7, cytoplasmic
  SA-HRP uptake, Cyt.: 11.1 ng
MCF 7; MCF 7, nuclear
  SA-HRP uptake, Nuc.: 5.8 ng
A704; A704, cytoplasmic
  SA-HRP uptake, Cyt.: 4.5 ng
A704; A704, nuclear
  SA-HRP uptake, Nuc.: 1.2 ng
A2780; A2780, cytoplasmic
  SA-HRP uptake, Cyt.: 7.5 ng
A2780; A2780, nuclear
  SA-HRP uptake, Nuc.: 1.0 ng
OVCAR-4; OVCAR-4, cytoplasmic
  SA-HRP uptake, Cyt.: 6.1 ng
OVCAR-4; OVCAR-4, nuclear
  SA-HRP uptake, Nuc.: 1.3 ng
EKVX; cytoplasmic
  SA-HRP uptake, Cyt.: 7.7 ng
EKVX; nuclear
  SA-HRP uptake, Nuc.: 7.3 ng
IGR-OV1; IGR-OV1, cytoplasmic
  SA-HRP uptake, Cyt.: 1.9 ng
IGR-OV1; IGR-OV1, nuclear
  SA-HRP uptake, Nuc.: 1.0 ng
NCI-H23; NCI-H23, cytoplasmic
  SA-HRP uptake, Cyt.: 8.0 ng
NCI-H23; NCI-H23, nuclear
  SA-HRP uptake, Nuc.: 8.7 ng
SN12C; cytoplasmic
  SA-HRP uptake, Cyt.: 6.7 ng
SN12C; nuclear
  SA-HRP uptake, Nuc.: 6.4 ng
RPMI 8226; RPMI 8226, cytoplasmic
  SA-HRP uptake, Cyt.: 3.6 ng
RPMI 8226; RPMI 8226, nuclear
  SA-HRP uptake, Nuc.: 0.0 ng
SHP-77; SHP-77, cytoplasmic
  SA-HRP uptake, Cyt.: 6.6 ng
SHP-77; SHP-77, nuclear
  SA-HRP uptake, Nuc.: 2.7 ng
MX-1; MX-1, cytoplasmic
  SA-HRP uptake, Cyt.: 8.5 ng
MX-1; MX-1, nuclear
  SA-HRP uptake, Nuc.: 3.8 ng
HS-578T; cytoplasmic
  SA-HRP uptake, Cyt.: 2.8 ng
HS-578T; nuclear
  SA-HRP uptake, Nuc.: 2.3 ng
DU-145; DU-145, cytoplasmic
  SA-HRP uptake, Cyt.: 25.7 ng
DU-145; DU-145, nuclear
  SA-HRP uptake, Nuc.: 3.3 ng
NCI-H226; NCI-H226, cytoplasmic
  SA-HRP uptake, Cyt.: 0.7 ng
NCI-H226; NCI-H226, nuclear
  SA-HRP uptake, Nuc.: 0.9 ng
Lewis Lung; cytoplasmic
  SA-HRP uptake, Cyt.: 6.4 ng
Lewis Lung; nuclear
  SA-HRP uptake, Nuc.: 3.4 ng
COLO 205; COLO 205, cytoplasmic
  SA-HRP uptake, Cyt.: 2.1 ng
COLO 205; COLO 205, nuclear
  SA-HRP uptake, Nuc.: 0.9 ng
HCT-116; HCT-116, cytoplasmic
  SA-HRP uptake, Cyt.: 12.4 ng
HCT-116; HCT-116, nuclear
  SA-HRP uptake, Nuc.: 9.5 ng
HT-29; HT-29, cytoplasmic
  SA-HRP uptake, Cyt.: 3.5 ng
HT-29; HT-29, nuclear
  SA-HRP uptake, Nuc.: 9.5 ng
